Measured values as given in patent US8822517B2, “Arylosulfonamides for the treatment of CNS diseases” (Adamed SP. Z O.O., priority 2010, dated 2014).

How the values were obtained:
[1] = target: histaminergic H1 receptor (Homo sapiens, UniProt P35367); experiment: Binding assay H1 (h), [3H]pyrilamine, HEK-293 cells; parameters: expressed in transfected cells; host or cells: HEK-293 cells; conditions: read-out: H1 [%]
In short: (§1)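 Specific ligand binding was taken as total minus non-specific binding, with the latter defined in the presence of surplus unlabelled ligand. Each compound was tested at a single 1×10^−6 M concentration.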

hERG potassium channels = hERG potassium channels (Homo sapiens, UniProt Q12809)
Sequence of hERG potassium channels (Q12809 whole entry): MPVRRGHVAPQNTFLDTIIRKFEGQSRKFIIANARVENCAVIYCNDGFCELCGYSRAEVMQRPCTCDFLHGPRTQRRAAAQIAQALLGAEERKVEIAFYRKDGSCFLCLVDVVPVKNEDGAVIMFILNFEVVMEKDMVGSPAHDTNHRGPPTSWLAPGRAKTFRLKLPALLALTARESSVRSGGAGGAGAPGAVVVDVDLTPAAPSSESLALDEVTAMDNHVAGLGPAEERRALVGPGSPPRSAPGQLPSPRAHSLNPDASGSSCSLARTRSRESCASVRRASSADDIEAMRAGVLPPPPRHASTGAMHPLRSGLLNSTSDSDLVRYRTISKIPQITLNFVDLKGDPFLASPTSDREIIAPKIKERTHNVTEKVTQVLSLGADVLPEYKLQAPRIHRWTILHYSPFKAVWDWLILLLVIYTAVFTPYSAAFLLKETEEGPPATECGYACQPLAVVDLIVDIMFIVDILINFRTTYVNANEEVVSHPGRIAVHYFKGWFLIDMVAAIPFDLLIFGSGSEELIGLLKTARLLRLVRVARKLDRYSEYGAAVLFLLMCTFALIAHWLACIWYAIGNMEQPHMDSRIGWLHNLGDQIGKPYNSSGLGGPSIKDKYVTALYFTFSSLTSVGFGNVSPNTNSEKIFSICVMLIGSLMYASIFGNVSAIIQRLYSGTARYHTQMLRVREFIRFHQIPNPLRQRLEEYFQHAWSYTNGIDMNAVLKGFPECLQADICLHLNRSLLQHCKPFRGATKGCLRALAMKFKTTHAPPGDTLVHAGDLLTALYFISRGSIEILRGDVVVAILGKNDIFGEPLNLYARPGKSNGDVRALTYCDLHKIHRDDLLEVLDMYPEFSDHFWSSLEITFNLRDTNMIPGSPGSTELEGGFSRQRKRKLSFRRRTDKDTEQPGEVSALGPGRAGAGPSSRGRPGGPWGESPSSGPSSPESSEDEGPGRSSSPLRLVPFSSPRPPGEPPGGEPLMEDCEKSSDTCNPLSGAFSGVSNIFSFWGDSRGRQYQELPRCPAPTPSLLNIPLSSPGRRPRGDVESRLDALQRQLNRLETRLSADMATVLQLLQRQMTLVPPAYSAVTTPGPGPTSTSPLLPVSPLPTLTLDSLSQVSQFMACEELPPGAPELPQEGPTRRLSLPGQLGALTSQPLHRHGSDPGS
Experimental: Ability to block hERG potassium channels was determined using the electrophysiological method and cloned hERG potassium channels (KCNH2 gene, expressed in CHO cells) as biological material. The effects were evaluated using IonWorks™ Quattro system (MDS-AT).
hERG current was elicited using a pulse pattern with fixed amplitudes (conditioning prepulse: −80 mV for 25 ms; test pulse: +40 mV for 80 ms) from a holding potential of 0 mV. hERG current was measured as a difference between the peak current at 1 ms after the test step to +40 mV and the steady-state current at the end of the step to +40 mV.
Data acquisition and analyses was performed using the IonWorks Quattro™ system operation software (version 2.0.2; Molecular Devices Corporation, Union City, Calif.). Data were corrected for leak current.

[2] = target: T1, serotoninergic 5-HT1A receptor (Homo sapiens, UniProt P08908); experiment: Binding assay 5-HT1A (h), [3H]8-OH-DPAT, HEK-293 cells; parameters: expressed in transfected cells; host or cells: HEK-293 cells; conditions: read-out: 5-HT1A
T1 sequence (P08908 1-422): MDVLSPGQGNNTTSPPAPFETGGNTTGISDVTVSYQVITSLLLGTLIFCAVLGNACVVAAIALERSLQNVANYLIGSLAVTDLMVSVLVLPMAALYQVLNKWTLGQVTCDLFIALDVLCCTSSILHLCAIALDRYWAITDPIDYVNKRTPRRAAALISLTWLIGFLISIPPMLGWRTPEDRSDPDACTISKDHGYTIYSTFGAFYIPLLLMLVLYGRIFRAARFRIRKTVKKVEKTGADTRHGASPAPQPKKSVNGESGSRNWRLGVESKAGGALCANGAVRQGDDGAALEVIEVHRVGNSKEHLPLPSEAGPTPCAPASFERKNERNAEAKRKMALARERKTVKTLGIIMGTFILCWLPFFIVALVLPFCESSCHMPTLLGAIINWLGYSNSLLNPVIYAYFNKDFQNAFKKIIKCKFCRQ
In short: as §1

adrenergic α1 receptor = experiment: Binding assay α1 (non-selective), [3H]prazosin, rat cerebral cortex; conditions: percent inhibition of control specific binding; compounds tested at 1×10^−6 M
In short: as §1

sigma σ receptor = experiment: Binding assay σ (non-selective), [3H]DTG, rat cerebral cortex; conditions: percent inhibition of control specific binding; compounds tested at 1×10^−6 M
In short: as §1

[3] = target: serotoninergic 5-HT6 receptor (Homo sapiens, UniProt P50406); experiment: Binding assay 5-HT6 (h), [3H]LSD, CHO cells; parameters: expressed in transfected cells; host or cells: CHO cells; conditions: read-out: 5-HT6
Sequence of serotoninergic 5-HT6 receptor (P50406 whole entry): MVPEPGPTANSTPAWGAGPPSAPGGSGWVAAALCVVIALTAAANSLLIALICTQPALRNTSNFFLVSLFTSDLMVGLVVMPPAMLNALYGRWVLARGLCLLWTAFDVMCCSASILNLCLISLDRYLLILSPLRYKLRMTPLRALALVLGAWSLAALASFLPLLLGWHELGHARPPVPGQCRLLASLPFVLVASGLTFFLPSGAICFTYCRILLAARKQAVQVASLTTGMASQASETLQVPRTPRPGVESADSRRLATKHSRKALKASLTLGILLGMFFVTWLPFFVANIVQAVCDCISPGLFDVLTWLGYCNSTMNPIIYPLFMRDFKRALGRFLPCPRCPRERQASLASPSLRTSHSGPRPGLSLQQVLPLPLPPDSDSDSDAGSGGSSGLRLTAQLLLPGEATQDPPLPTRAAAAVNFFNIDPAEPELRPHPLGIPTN
In short: as §1

[4] = target: serotoninergic 5-HT2A receptor (Homo sapiens, UniProt P28223); experiment: Binding assay 5-HT2A (h), [3H]ketanserin, HEK-293 cells; parameters: expressed in transfected cells; host or cells: HEK-293 cells; conditions: read-out: 5-HT2A
Sequence of serotoninergic 5-HT2A receptor (P28223 whole entry): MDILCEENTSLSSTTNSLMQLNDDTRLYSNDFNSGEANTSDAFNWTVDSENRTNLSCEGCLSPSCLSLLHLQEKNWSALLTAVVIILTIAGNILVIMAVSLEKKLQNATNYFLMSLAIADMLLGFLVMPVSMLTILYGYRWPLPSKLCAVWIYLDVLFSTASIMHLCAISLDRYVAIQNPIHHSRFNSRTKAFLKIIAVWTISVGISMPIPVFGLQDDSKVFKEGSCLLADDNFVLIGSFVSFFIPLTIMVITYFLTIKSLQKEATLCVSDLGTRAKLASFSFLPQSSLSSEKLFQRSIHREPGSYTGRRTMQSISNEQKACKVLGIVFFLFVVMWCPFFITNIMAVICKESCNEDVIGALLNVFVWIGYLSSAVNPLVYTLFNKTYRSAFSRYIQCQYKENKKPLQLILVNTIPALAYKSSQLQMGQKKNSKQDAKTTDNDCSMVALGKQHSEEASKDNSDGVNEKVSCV
In short: as §1

dopaminergic D3 receptor = dopaminergic D3 receptor (Homo sapiens, UniProt P35462); experiment: Binding assay D3 (h), [3H]methyl-spiperone, CHO cells; parameters: expressed in transfected cells; host or cells: CHO cells; conditions: read-out: D3 [%]
Sequence of dopaminergic D3 receptor (P35462 whole entry): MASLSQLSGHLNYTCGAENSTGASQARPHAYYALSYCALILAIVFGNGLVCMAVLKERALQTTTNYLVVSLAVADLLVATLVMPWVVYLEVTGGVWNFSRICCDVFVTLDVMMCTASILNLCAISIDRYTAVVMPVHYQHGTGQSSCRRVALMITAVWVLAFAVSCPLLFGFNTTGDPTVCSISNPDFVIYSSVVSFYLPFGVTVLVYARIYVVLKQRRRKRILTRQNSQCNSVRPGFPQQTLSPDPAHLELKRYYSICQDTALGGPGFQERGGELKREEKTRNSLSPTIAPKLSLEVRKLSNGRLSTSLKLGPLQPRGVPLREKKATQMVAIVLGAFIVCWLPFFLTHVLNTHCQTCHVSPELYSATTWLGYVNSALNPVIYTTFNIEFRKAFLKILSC
In short: as §1

muscarinic M3 receptor = target: T2, muscarinic M3 receptor (Homo sapiens, UniProt P20309); experiment: Binding assay M3 (h), [3H]4-DAMP, CHO cells; conditions: read-out: M3 [%]
T2 construct: expressed in transfected cells; host or cells: CHO cells
T2 sequence (P20309 whole entry): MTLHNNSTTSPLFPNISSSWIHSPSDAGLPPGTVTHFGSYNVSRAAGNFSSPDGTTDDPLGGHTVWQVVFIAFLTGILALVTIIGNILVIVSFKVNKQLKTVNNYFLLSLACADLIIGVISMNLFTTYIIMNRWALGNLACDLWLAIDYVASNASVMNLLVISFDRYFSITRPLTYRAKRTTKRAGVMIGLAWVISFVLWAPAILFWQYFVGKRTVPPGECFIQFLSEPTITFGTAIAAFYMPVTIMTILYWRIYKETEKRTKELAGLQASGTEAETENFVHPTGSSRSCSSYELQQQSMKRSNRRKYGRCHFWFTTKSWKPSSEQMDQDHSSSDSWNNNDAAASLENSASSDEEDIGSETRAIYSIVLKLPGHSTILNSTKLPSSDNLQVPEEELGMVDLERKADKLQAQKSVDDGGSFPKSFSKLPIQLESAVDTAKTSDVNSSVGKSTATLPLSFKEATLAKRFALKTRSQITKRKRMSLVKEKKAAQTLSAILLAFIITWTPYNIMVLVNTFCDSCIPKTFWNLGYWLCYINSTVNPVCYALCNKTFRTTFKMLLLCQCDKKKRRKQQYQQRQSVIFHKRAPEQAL
In short: as §1

adrenergic α2C receptor = target: T3, adrenergic α2C receptor (Homo sapiens, UniProt P18825); experiment: Binding assay α2C (h), [3H]RX 821002, CHO cells; parameters: expressed in transfected cells; host or cells: CHO cells; conditions: read-out: α2C [%]
T3 sequence (P18825 1-462): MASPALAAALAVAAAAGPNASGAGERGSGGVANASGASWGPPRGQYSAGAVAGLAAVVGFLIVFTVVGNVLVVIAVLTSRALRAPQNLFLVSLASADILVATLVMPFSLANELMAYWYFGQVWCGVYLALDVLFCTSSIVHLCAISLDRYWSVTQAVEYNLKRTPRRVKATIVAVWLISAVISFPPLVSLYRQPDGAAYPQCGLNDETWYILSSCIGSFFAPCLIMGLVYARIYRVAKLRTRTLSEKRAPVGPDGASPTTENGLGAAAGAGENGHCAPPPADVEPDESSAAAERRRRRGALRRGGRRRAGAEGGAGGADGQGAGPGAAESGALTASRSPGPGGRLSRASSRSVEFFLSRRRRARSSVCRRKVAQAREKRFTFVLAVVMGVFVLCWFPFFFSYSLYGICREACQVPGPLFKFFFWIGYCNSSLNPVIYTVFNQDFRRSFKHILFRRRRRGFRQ
In short: as §1

[5] = target: T4, serotonine transporter (SERT) receptor (Homo sapiens, UniProt P31645); experiment: Binding assay SERT (h), [3H]imipramine, CHO cells; conditions: read-out: SERT [%]
T4 construct: expressed in transfected cells; host or cells: CHO cells
T4 sequence (P31645 whole entry): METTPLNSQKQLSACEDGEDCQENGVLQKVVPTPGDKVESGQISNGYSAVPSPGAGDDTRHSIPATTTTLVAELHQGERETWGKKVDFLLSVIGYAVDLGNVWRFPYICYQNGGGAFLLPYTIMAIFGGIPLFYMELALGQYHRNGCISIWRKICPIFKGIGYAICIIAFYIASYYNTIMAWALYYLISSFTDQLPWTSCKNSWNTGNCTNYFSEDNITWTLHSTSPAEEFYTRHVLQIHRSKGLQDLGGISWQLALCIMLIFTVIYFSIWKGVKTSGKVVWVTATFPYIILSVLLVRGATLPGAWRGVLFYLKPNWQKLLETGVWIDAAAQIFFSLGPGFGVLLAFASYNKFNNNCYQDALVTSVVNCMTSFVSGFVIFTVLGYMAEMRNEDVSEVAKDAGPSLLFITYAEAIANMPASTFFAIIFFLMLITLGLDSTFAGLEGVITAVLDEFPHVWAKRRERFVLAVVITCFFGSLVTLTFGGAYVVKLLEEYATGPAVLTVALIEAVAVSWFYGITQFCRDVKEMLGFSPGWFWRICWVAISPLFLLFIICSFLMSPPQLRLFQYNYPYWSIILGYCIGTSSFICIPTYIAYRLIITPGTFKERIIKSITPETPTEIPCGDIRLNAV
In short: as §1

dopaminergic D2 receptor = dopaminergic D2 receptor (Homo sapiens, UniProt P14416); experiment: Binding assay D2S (h), [3H]methyl-spiperone, HEK-293 cells; parameters: expressed in transfected cells; host or cells: HEK-293 cells; conditions: read-out: D2 [%]
Sequence of dopaminergic D2 receptor (P14416 1-414 isoform P14416-2): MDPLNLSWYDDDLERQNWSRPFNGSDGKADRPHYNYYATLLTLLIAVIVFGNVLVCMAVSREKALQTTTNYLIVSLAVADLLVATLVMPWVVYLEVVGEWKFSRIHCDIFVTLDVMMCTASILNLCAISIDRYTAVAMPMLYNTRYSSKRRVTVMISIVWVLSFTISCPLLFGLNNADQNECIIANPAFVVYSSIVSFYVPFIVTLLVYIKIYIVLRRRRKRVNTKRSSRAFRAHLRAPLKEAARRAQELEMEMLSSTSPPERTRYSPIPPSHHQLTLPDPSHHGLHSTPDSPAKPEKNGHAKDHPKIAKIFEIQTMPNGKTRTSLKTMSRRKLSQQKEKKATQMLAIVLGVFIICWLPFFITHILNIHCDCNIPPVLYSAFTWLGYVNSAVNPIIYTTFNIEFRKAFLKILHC
In short: as §1

[6] = target: serotoninergic 5-HT7 receptor (Homo sapiens, UniProt P34969); experiment: Binding assay 5-HT7 (h), [3H]LSD, CHO cells; parameters: expressed in transfected cells; host or cells: CHO cells; conditions: read-out: 5-HT7
Sequence of serotoninergic 5-HT7 receptor (P34969 whole entry): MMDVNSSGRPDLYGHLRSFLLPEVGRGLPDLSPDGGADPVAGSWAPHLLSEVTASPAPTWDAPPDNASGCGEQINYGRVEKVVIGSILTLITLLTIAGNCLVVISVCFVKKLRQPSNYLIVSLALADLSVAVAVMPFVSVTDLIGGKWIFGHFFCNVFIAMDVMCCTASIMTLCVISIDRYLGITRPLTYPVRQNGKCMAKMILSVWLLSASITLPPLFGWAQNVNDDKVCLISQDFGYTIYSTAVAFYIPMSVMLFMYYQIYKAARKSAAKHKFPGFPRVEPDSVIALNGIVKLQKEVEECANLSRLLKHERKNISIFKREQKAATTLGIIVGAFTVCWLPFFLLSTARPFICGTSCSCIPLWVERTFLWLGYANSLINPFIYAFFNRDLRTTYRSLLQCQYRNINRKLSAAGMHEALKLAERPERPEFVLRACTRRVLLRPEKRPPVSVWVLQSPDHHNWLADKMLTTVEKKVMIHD
In short: as §1

[7] = target: T5, serotoninergic receptor 5-HT2C (Homo sapiens, UniProt P28335); experiment: Binding assay 5-HT2C (h), [3H]mesulergine, HEK-293 cells; conditions: read-out: 5-HT2C [%]
T5 construct: expressed in transfected cells; host or cells: HEK-293 cells
T5 sequence (P28335 33-458): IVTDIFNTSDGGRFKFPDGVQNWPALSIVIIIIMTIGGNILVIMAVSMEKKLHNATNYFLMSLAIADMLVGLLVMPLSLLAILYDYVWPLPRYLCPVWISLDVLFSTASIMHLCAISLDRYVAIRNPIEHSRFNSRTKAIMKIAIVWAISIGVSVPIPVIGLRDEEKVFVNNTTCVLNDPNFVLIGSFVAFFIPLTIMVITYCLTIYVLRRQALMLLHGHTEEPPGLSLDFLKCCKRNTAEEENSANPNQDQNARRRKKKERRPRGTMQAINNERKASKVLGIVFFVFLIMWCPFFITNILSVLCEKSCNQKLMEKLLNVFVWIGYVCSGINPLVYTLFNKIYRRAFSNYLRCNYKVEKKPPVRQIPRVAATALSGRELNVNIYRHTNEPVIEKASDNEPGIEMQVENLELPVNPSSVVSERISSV
In short: as §1

Structure (SMILES): Cc1[nH]c2ccc(Cl)cc2c1C1=CCN(CCCNS(=O)(=O)c2cccc(O)c2)CC1 [Compound 445, N-[3-[4-(5-Chloro-2-methyl-1H-indol-3-yl)-3,6-dihydro-2H-pyridin-1-yl]propyl]-3-hydroxybenzenesulphonamide]
- inhibition at 1 µM [1]: 60%
- hERG [%] (hERG potassium channels): 2%
- inhibition at 1 µM [2]: 93%
- α1 [%] (adrenergic α1 receptor): 50%
- σ [%] (sigma σ receptor): 67%
- inhibition at 1 µM [3]: 84%
- inhibition at 1 µM [4]: 78%
- inhibition at 1 µM (dopaminergic D3 receptor): 97%
- inhibition at 1 µM (muscarinic M3 receptor): 27%
- inhibition at 1 µM (adrenergic α2C receptor): 69%
- inhibition at 1 µM [5]: 68%
- inhibition at 1 µM (dopaminergic D2 receptor): 98%
- inhibition at 1 µM [6]: 98%
- inhibition at 1 µM [7]: 67%
